The values below are quoted from earlier work in patent US12673009B2, “Dental material” (King's College London, priority 2020, dated 2026).

For data set [1] the following is noted: Tylkowski et al., 2013.

With `[Li]` [lithium], the “safe therapeutic range of blood levels for patients on lithium therapies” value is recorded as 4.2-8.3 ppm. Besides, the “lithium concentration reported to be toxic” value in data set [1] was around 700 ppm.
